Reference: ChEMBL document CHEMBL1147031, “3D-QSAR and molecular docking studies of benzaldehyde thiosemicarbazone, benzaldehyde, benzoic acid, and their derivatives as phenoloxidase inhibitors” (Bioorg Med Chem, 2007)

Assay: Inhibition of pieris rapae Phenoloxidase

With `O=Cc1ccccc1O` the IC50 was 4.14 mM.
Compound `CC(C)c1ccc(C(=O)O)cc1` has an IC50 of 1.92 mM.
Work on `CCCc1ccc(C(=O)O)cc1` yielded an IC50 of 1.75 mM.
For `COc1cccc(C=O)c1O`, the IC50 was 5.75 mM.
Work on `Nc1ccc(C(=O)O)cc1O` yielded an IC50 of 25.5 mM.
In the case of `CC(C)c1ccc(C=O)cc1`, the IC50 is reported as 0.86 mM.
`COc1ccc(C=O)cc1` showed an IC50 of 1.9 mM.
`COc1cccc(C(=O)O)c1` gave an IC50 of 13.3 mM.
With `COc1cccc(C=O)c1` the IC50 was 42.9 mM.
With `COc1cccc(/C=N/NC(N)=S)c1` the IC50 was 0.00192 mM.
`NC(=S)N/N=C/c1ccccc1O` showed an IC50 of 0.0022 mM.
`CC(C)(C)c1ccc(C=O)cc1` gave an IC50 of 0.72 mM.
With `Nc1cc(C(=O)O)ccc1O` the IC50 was 3.8 mM.
Compound `O=Cc1cc(O)ccc1O` has an IC50 of 1.05 mM.
`O=Cc1ccc(O)cc1O` gave an IC50 of 4.88 mM.
For `COc1ccc(C=O)c(O)c1`, the IC50 was 2 mM.
`NC(=S)N/N=C\C=C\c1ccccc1` showed an IC50 of 0.00065 mM.
`COc1ccc(/C=N/NC(N)=S)cc1` gave an IC50 of 0.0006 mM.
`CC(C)(C)c1ccc(C(=O)O)cc1` gave an IC50 of 2.1 mM.
Work on `O=C(O)c1ccc(O)cc1O` [2,4-DIHYDROXYBENZOIC ACID] yielded an IC50 of 30.5 mM.
With `COc1ccccc1C=O` [2-METHOXYBENZALDEHYDE] the IC50 was 107 mM.
`O=Cc1cccc(O)c1` [3-HYDROXYBENZALDEHYDE] gave an IC50 of 9.62 mM.
In the case of `O=C(O)c1cccc(O)c1` [3-HYDROXYBENZOIC ACID], the IC50 is reported as 16.2 mM.
For `O=Cc1ccc(O)cc1` [4-HYDROXYBENZALDEHYDE], the IC50 was 3.12 mM.
In the case of `O=Cc1ccccc1` [BENZALDEHYDE], the IC50 is reported as 5.9 mM.
Work on `O=C(O)c1ccccc1` [BENZOIC ACID] yielded an IC50 of 14.2 mM.
Compound `O=C(O)c1cc(O)ccc1O` [GENTISIC ACID] has an IC50 of 32.5 mM.
Work on `COc1ccc(C(=O)O)cc1O` [ISOVANILLIC ACID] yielded an IC50 of 47.5 mM.
For `COc1ccc(C=O)cc1O` [ISOVANILLIN], the IC50 was 24.9 mM.
`O=C(O)c1ccc(O)cc1` [PARABEN] showed an IC50 of 16.2 mM.
`NC(=S)N/N=C/c1ccccc1` [PHENYLTHIOSEMICARBAZONE] showed an IC50 of 0.00084 mM.
In the case of `O=Cc1ccc(O)c(O)c1` [PROTOCATECHUALDEHYDE], the IC50 is reported as 9 mM.
In the case of `O=C(O)c1ccc(O)c(O)c1` [PROTOCATECHUIC ACID], the IC50 is reported as 29.5 mM.
With `O=C(O)c1ccccc1O` [SALICYLIC ACID] the IC50 was 33.8 mM.
Work on `COc1cc(C(=O)O)ccc1O` [VANILLIC ACID] yielded an IC50 of 69 mM.
`COc1cc(C=O)ccc1O` [VANILLIN] showed an IC50 of 50.5 mM.
`COc1ccc(C(=O)O)cc1` [p-ANISIC ACID] showed an IC50 of 5.55 mM.
